According to US20240252716A1, “SELF-ASSEMBLING NANOFIBROUS ULTRASHORT PEPTIDE HYDROGELS FOR VASCULAR TISSUE ENGINEERING” (KING ABDULLAH UNIVERSITY OF SCIENCE AND TECHNOLOGY, priority 2021, published 2024):
[ ]: non-standard residue; d: D form. Cha = N[C@@H](CC1CCCCC1)C(=O)O

Legend:
[1] = test system: HUVEC cells; test: LIVE/DEAD staining viability of HUVEC cells cultured in peptide hydrogels; type: cell-based, Human; settings: cultured within hydrogel; 24 h, 4 days and 7 days; versus Matrigel
Experimental: Viability of HUVEC cells were evaluated by using LIVE/DEAD® staining at different time points in order to assess the compatibility of peptide scaffolds with cells. In one embodiment, the viability of HUVEC cells was determined after 24 h, 4 days and 7 days of culturing within peptide scaffolds.
In FIG. 3, for living cells were stained in green by calcein AM, while dead cells were stained in red by ethidium homodimer (EthD-1).
HUVEC cells were seeded and treated with peptides according to the protocol described above. After 24 h of incubation, the media was removed and replaced with DPBS solution containing approximately […] calcein AM and […] ethidium homodimer-1 (LIVE/DEAD® Viability/Cytotoxicity Kit, Life Technologies®) and incubated for 30 min in dark. Before imaging, the staining solution was removed and fresh DPBS was added. Stained cells were imaged with ZEISS® fluorescent microscope.
HUVEC cells were encapsulated in peptide hydrogels in 96 well tissue culture plates. Peptide solution was added to the plate at 40 μL per well. HUVEC cells suspended in 2×PBS were added to each well at 40,000 cells/well and gently mixed. The final concentration of the peptide hydrogel was 1× after the addition of 2×PBS containing cells. […] At pre-determined time points, the 3D cell viability assay, live/dead assay and florescence staining were performed.

[2] = test system: HUVECs; test: Cell attachment of HUVECs on coverslips coated with hydrogels or Matrigel; type: cell-based, Human; settings: after 4 hours of culture
Experimental: Cell attachment was evaluated by seeding HUVECs on top of coverslips coated with Matrigel® (control) and different hydrogels. After incubation for 4 hours, efficient cell extension and adhesion in both control and hydrogels can be clearly seen, and also tube-like structure can be observed, as shown in FIG. 4. Furthermore, the number of cells attached was calculated for different scaffold used.

[3] = test system: HUVEC cells; test: 3D cell proliferation assay (CellTiter-Glo, ATP production); type: cell-based, Human
Experimental: In one embodiment, HUVEC cells have higher proliferation cultured in peptides than in Matrigel®. Proliferation of cells cultured in both hydrogels and Matrigel® was evaluated by measuring the production of ATP after culturing for different period of time. The differences in ATP produced when cultured in different scaffolds was calculated.
HUVEC cells were encapsulated in peptide hydrogels in 96 well tissue culture plates. Peptide solution was added to the plate at 40 μL per well. HUVEC cells suspended in 2×PBS were added to each well at 40,000 cells/well and gently mixed. The final concentration of the peptide hydrogel was 1× after the addition of 2×PBS containing cells. Gelation occurred within 3-5 minutes and subsequently, the culture medium was added to the wells. At pre-determined time points, the 3D cell viability assay, live/dead assay and florescence staining were performed.
The CellTiter-Glo® luminescent 3D cell viability assay is a method to determine the number of viable cells in 3D hydrogels based on quantification of the ATP present, which signals the presence of metabolically active cells. After each time point, an equal amount of CellTiter-Glo® luminescent reagent was added to the same amount of media in each well. The contents were mixed for 5 minutes to digest the hydrogels and then incubated for 10 minutes. After incubation, the luminescence was recorded using a plate reader (PHERAstar® FS, Germany).

[4] = test system: HUVECs; test: Cytoskeletal (actin) staining with rhodamine-phalloidin; type: cell-based, Human; settings: 24 h of culture
Experimental: In one embodiment, HUVECs grown in peptide scaffolds maintain their normal morphology and functionality. […] In the present disclosure, the cytoskeleton organization of HUVECs grown in the nanofibers scaffolds was visualized by staining the actin of cells with rhodamine-phalloidin. Cell morphology and the organization of actin structures of HUVECs grown in different scaffolds were compared and shown in FIG. 7.
(§1) Immunostaining was performed after 24 h of culture. In brief, the cells were fixed with 4% paraformaldehyde solution for 30 minutes and incubated in a cold cytoskeleton buffer (3 mM MgCl2, 300 mM sucrose and 0.5% Triton X-100 in PBS solution) for 10 minutes to permeabilize the cell membranes. The permeabilised cells were incubated in blocking buffer solution (5% FBS, 0.1% Tween-20, and 0.02% sodium azide in PBS) for 30 minutes at 37° C., followed by incubation with rhodamine-phalloidin (1:300) for 1 hour at 37° C. In case of endothelial cell markers, the sample incubated with Mouse anti-Endothelial Cell CD146 ( 1/500), Rabbit anti-VWF ( 1/5000) or Mouse anti-CD31 ( 1/50) for 1 hour and followed by secondary antibody. Furthermore, the cells were incubated in DAPI for 5 minutes at room temperature to counterstain the nucleus. Finally, the cells were observed and imaged using a laser scanning confocal microscope (Zeiss® LSM 710 Inverted Confocal Microscope, Germany).

[5] = test system: HUVECs; test: Endothelial cell marker expression (immunostaining); type: cell-based, Human; settings: similar to that in Matrigel
Experimental: The functionality of HUVECs in different scaffolds was determined by the expression of universal endothelial cell markers, including CD34, CD146 and Von-Willebrand factor (vWF).
as §1

[6] = test system: HUVECs; test: In vitro angiogenesis study (tube-like structure formation); type: cell-based, Human; settings: for capillary-like structure formation by HUVECs: 2-6 hours of culture, no growth factors added to peptide scaffolds; for length of tube-like structure versus Matrigel: ImageJ, peptides without growth factor; for number of junctions of tube-like structure versus Matrigel: peptide hydrogels without growth factor, Matrigel with growth factors
Experimental: In one embodiment, HUVEC cells form tube-like structures when cultured in peptide hydrogels. In determining the effects of peptide scaffolds in facilitating the formation of the capillary-like structure formed by HUVEC cells, there was no addition of growth factors, after cells were plated on the surfaces of IIFK (SEQ ID NO. 1) and IIZK (SEQ ID NO. 2) scaffolds and Matrigel® (control). […] However, Matrigel® scaffold contains several growth factors that stimulate capillary-like structure formation rapidly. […] Tube length and diameter were evaluated using ImageJ software. […] In our study, no growth factors were added to the peptide scaffold.
Peptide hydrogel or Matrigel® were placed in 24 well plate, and human umbilical vein endothelial cells (HUVECs) 40,000 cells/well were added on top of peptide gel or Matrigel®. The amount of solutions in each well is about 200 μl. […] Cells were then investigated using inverted microscope, and images were analyzed by Image J using Angiogenesis Analyzer.

[7] = Peptide hydrogel preparation / gelation; type: physicochemical; settings: water, then PBS to 1x final
Source text: The solution-gel transition of both peptides (IIFK (SEQ ID NO. 1) and IIZK (SEQ ID NO. 2)) were induced by the addition of 1×PBS. Scanning electron microscopy (SEM) and transmission electron microscopy (TEM) examinations also confirmed the self-assembling nanofiber formations, as shown in FIGS. 1 and 2. The scale bars are 1 μm in FIGS. 1 and 200 nm in FIG. 2.
The tetramer self-assembling peptides Ac-IIZK (SEQ ID NO. 2)-NH2 (Ac-Ile-Val-Cha-Lys-NH2) and Ac-IIFK (SEQ ID NO. 1)-NH2 (Ac-Ile-Val-Phe-Lys-N H2) were manually synthesized by using solid phase peptide synthesis and purified to above 95% via HPLC. Amino acid and peptide content analysis were performed. Lyophilized peptide was dissolved in milliQ® water and vortexed to get a homogenous solution. Subsequently, 10×phosphate buffered saline at the final concentration of 1× was added to the peptide solution and vortexed shortly. Gelation occurred within few seconds in IIZK (SEQ ID NO. 2) at I mg/mL and IIFK (SEQ ID NO. 1) at 2 mg/mL peptide concentration.
HUVEC cells were encapsulated in peptide hydrogels in 96 well tissue culture plates. Peptide solution was added to the plate at 40 μL per well. HUVEC cells suspended in 2×PBS were added to each well at 40,000 cells/well and gently mixed. […] At pre-determined time points, the 3D cell viability assay, live/dead assay and florescence staining were performed.

Row | Substance | viability of HUVEC cells (LIVE/DEAD staining) compared to Matrigel [1] | number of attached cells versus Matrigel [2] | ATP production by HUVEC cells versus Matrigel ([3]; after 24 h of culture) | ATP production by HUVEC cells versus Matrigel ([3]; after 7 day of culture) | cell morphology and actin organization [4] | expression of endothelial cell markers CD34, CD146 and vWF [5] | capillary-like structure formation by HUVECs [6] | length of tube-like structure versus Matrigel [6] | number of junctions of tube-like structure versus Matrigel [6] | peptide concentration at which gelation occurred within few seconds [7]
1 | Ac-IV[Cha]K-NH2 [IIZK] | higher viability | no significant difference | no significant difference | significantly higher | fibroblastic morphology | well expressed | formed capillary-like structure networks | no significant difference | comparable | –
2 | Ac-Ile-Val-Phe-Lys-N H2 [IIFK] | higher viability | no significant difference | no significant difference | significantly higher | fibroblastic morphology | well expressed | formed capillary-like structure networks | no significant difference | comparable | 2 mg/mL
